For 37 molecules, viability results are on record in PMC11995724, “Antibiotic target discovery by integrated phenotypic and activity-based profiling of electrophilic fragments” (Cell chemical biology, 2025).

Structures can show the parent of a compound that is named as a salt.

A short description of this data set: in vitro. The conditions noted are these: human, hek293t cells.
The viability is a read-out of living cells in per cent, often relative to untreated cells. Take `Cc1cccc(NC(=O)c2ccccc2NC(=O)CCl)c1` [4-C10, 2-(2-chloroacetamido)-N-(3-methylphenyl)benzamide]: the viability at 48 h, 25 µM is -0.0841%.
The figure for `O=C(CCl)Nc1ccc(N=Nc2ccccc2)cc1` [4-C11, 2-chloro-N-[4-(2-phenyldiazen-1-yl)phenyl]acetamide] is 0.339%; for `CC(Cl)C(=O)Nc1ccc(Cl)c(C(F)(F)F)c1` (stereo not shown) [4-C12, 2-chloro-N-[4-chloro-3-(trifluoromethyl)phenyl]propanamide] it is 51%.
The figure for `CSc1nsc(NC(=O)CCl)n1` [4-C13, 2-chloro-N-[3-(methylsulfanyl)-1,2,4-thiadiazol-5-yl]acetamide] is 63.6%; for `CC(Cl)C(=O)Nc1ccc(Cl)cc1F` (stereo not shown) [4-C14, 2-chloro-N-(4-chloro-2-fluorophenyl)propanamide] it is 58.6%.
Consider `COc1ccc(N(CC(F)(F)F)C(=O)CCl)cc1` [4-C15, 2-chloro-N-(4-methoxyphenyl)-N-(2,2,2-trifluoroethyl)acetamide], for which the viability at 48 h, 25 µM came out at 0.659%.
With `CC(C)c1ccc(-c2cc(NC(=O)CCl)n(-c3ccccc3)n2)cc1` [4-C16, 2-chloro-N-{1-phenyl-3-[4-(propan-2-yl)phenyl]-1H-pyrazol-5-yl}acetamide], the viability at 48 h, 25 µM was -0.013%.
In the case of `O=C(CCl)N(Cc1ccccc1)c1nc2c(s1)CCCC2` [4-C17, N-benzyl-2-chloro-N-(4,5,6,7-tetrahydro-1,3-benzothiazol-2-yl)acetamide], the viability at 48 h, 25 µM is 0.212%.
The figure for `COc1ccccc1N(CC(F)(F)F)C(=O)CCl` [4-C18, 2-chloro-N-(2-methoxyphenyl)-N-(2,2,2-trifluoroethyl)acetamide] is 7.84%; for `O=C(CCl)N1CCN(S(=O)(=O)c2cccc([N+](=O)[O-])c2)CC1` [4-C19, 2-chloro-1-[4-(3-nitrobenzenesulfonyl)piperazin-1-yl]ethan-1-one] it is 1.45%; for `CCc1ccc(C(NC(=O)CCl)c2cccc(F)c2)cc1` (stereo not shown) [4-C20, 2-chloro-N-[(4-ethylphenyl)(3-fluorophenyl)methyl]acetamide] it is 0.508%.
As for `O=C(CCl)Nc1ccc(C(=O)O)cc1[N+](=O)[O-]` [4-C21, 4-(2-chloroacetamido)-3-nitrobenzoic acid], the viability at 48 h, 25 µM is 63.3%.
With `O=C(CCl)N1N=C(c2ccsc2)CC1c1cccc(F)c1` (stereo not shown) [4-C22, 2-chloro-1-[5-(3-fluorophenyl)-3-(thiophen-3-yl)-4,5-dihydro-1H-pyrazol-1-yl]ethan-1-one] the figure was 0.063%.
The figure for `CN(CC(=O)Nc1ccc(Cl)cc1)C(=O)CCl` [4-D03, 2-chloro-N-{[(4-chlorophenyl)carbamoyl]methyl}-N-methylacetamide] is 0.468%; for `Cc1cccc(NC(=O)CCl)c1C` [4-D04, 2-chloro-N-(2,3-dimethylphenyl)acetamide] it is 1.62%.
Consider `CN(CC(=O)Nc1ccccc1Cl)C(=O)CCl` [4-D05, 2-chloro-N-{[(2-chlorophenyl)carbamoyl]methyl}-N-methylacetamide], for which the viability at 48 h, 25 µM is 0.034%.
For the molecule `CCn1c2ccccc2c2cc(NC(=O)CCl)ccc21` [4-D06, 2-chloro-N-(9-ethyl-9H-carbazol-3-yl)acetamide], the viability at 48 h, 25 µM stood at 9.48%.
The figure for `CC1CCc2c(sc(NC(=O)CCl)c2C(=O)OC(C)C)C1` (stereo not shown) [4-D07, propan-2-yl 2-(2-chloroacetamido)-6-methyl-4,5,6,7-tetrahydro-1-benzothiophene-3-carboxylate] is 73.7%; for `O=C(CCl)Nc1cccc(S(=O)(=O)NC2=NCCCCC2)c1` [4-D08, N-{3-[(azepan-2-ylidene)sulfamoyl]phenyl}-2-chloroacetamide] it is 1.32%.
For the molecule `Cc1c(C#N)c(NC(=O)CCl)n(Cc2ccco2)c1C` [4-D09, 2-chloro-N-{3-cyano-1-[(furan-2-yl)methyl]-4,5-dimethyl-1H-pyrrol-2-yl}acetamide], the viability at 48 h, 25 µM was -0.0889%.
With `Cc1ccc(Cl)c(NC(=O)CCl)c1Cl` [4-D10, 2-chloro-N-(2,6-dichloro-3-methylphenyl)acetamide] the figure was 1.7%.
Turning to `CC(Cl)C(=O)Nc1ccccc1Cl` (stereo not shown) [4-D11, 2-chloro-N-(2-chlorophenyl)propanamide], the viability at 48 h, 25 µM is 97.8%.
With `CC(C)CN(C(=O)CCl)C1CCS(=O)(=O)C1` (stereo not shown) [4-D12, 2-chloro-N-(1,1-dioxo-1lambda6-thiolan-3-yl)-N-(2-methylpropyl)acetamide] the figure was 2.44%; with `CC(C)c1cc(O)nc(N2CCC(NC(=O)CCl)C2)n1` (stereo not shown) [4-D13, 2-chloro-N-{1-[4-hydroxy-6-(propan-2-yl)pyrimidin-2-yl]pyrrolidin-3-yl}acetamide], 2.02%; with `CC(Cl)C(=O)NCCc1cccs1` (stereo not shown) [4-D14, 2-chloro-N-[2-(thiophen-2-yl)ethyl]propanamide], 111%.
The figure for `COc1ccc(NC(=O)CCl)cc1S(=O)(=O)N1CCOCC1` [4-D15, 2-chloro-N-[4-methoxy-3-(morpholine-4-sulfonyl)phenyl]acetamide] is 0.627%; for `Cc1ccc(NC(=O)CN2CCN(C(=O)CCl)CC2)cc1` [4-D16, 2-[4-(2-chloroacetyl)piperazin-1-yl]-N-(4-methylphenyl)acetamide hydrochloride] it is 0.854%.
With `CC(Cl)C(=O)Nc1cc(Cl)cc(Cl)c1` (stereo not shown) [4-D17, 2-chloro-N-(3,5-dichlorophenyl)propanamide] the figure was 67.8%.
For `O=C(CCl)NCC(=O)Nc1ccc(F)c(F)c1F` [4-D18, 2-chloro-N-{[(2,3,4-trifluorophenyl)carbamoyl]methyl}acetamide], the viability at 48 h, 25 µM was determined as 2.12%.
With `Cc1cccc(Cc2cnc(NC(=O)C(C)Cl)s2)c1` (stereo not shown) [4-D19, 2-chloro-N-{5-[(3-methylphenyl)methyl]-1,3-thiazol-2-yl}propanamide] the figure was 74.1%; with `CC(Cl)C(=O)NCC(=O)Nc1ccc(F)c(F)c1F` (stereo not shown) [4-D20, 2-chloro-N-{[(2,3,4-trifluorophenyl)carbamoyl]methyl}propanamide], 118%; with `Cc1cccc(NC(=O)NC(=O)CCl)c1C` [4-D21, 3-(2-chloroacetyl)-1-(2,3-dimethylphenyl)urea], 0.759%.
`O=C(CCl)NCc1cccc(NC(=O)C2CC2)c1` [4-D22, N-{3-[(2-chloroacetamido)methyl]phenyl}cyclopropanecarboxamide]: the viability at 48 h, 25 µM was determined as 1.24%.
With `O=C(CCl)Nc1ccc(Cl)cc1F` [4-E03, 2-chloro-N-(4-chloro-2-fluorophenyl)acetamide] the figure was 0.433%.
On to `CC(C)CNC(=O)c1ccccc1NC(=O)CCl` [4-E04, 2-(2-chloroacetamido)-N-(2-methylpropyl)benzamide], for which the viability at 48 h, 25 µM is 0.855%.
As to `COc1ccc(S(=O)(=O)N(C)C)cc1NC(=O)CCl` [4-E05, 2-chloro-N-[5-(dimethylsulfamoyl)-2-methoxyphenyl]acetamide], the viability at 48 h, 25 µM is 0.891%.
Consider `CN(C(=O)CCl)c1c(N)n(Cc2ccccc2)c(=O)[nH]c1=O` [4-E06, N-(6-amino-1-benzyl-2,4-dioxo-1,2,3,4-tetrahydropyrimidin-5-yl)-2-chloro-N-methylacetamide], for which the viability at 48 h, 25 µM turned out to be 22.8%.
